The values that follow come from PubChem BioAssay AID256 (DTP/NCI, 2004).

Several values for one entry are separate records, joined by “and”; a condition that tells them apart may be missing. Identical values can stand only once. Toxic doses and inconclusive results are not listed.

This experiment deals with CD2F1 mice, L1210 leukemia ip, survival T/C. Nature of the experiment: NCI In Vivo Anticancer Drug Screen. Data for tumor model L1210 Leukemia (intraperitoneal) in CD2F1 (CDF1) mice. As to conditions: higher = longer survival. Put shortly:
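In this screen, transplantable tumors were grown in mice given either the compound or its vehicle. Results were expressed as the treated measurement relative to the control measurement.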

[1] abbreviates: endpoint: mean survival time, dose: 100.0 mg/kg/injection, schedule: Q01DX001 (ip), vehicle: saline with Tween-80.
Setting [2] is: endpoint: mean survival time, dose: 100.0 mg/kg/injection, schedule: Q01DX009 (ip), vehicle: saline with Tween-80.
Where [3] appears, read: endpoint: mean survival time, dose: 200.0 mg/kg/injection, schedule: Q01DX001 (ip), vehicle: saline with Tween-80.
The mark [4] stands for this setting: endpoint: mean survival time, dose: 200.0 mg/kg/injection, schedule: Q01DX009 (ip), vehicle: saline with Tween-80.
[5] abbreviates: endpoint: mean survival time, dose: 400.0 mg/kg/injection, schedule: Q01DX001 (ip), vehicle: saline with Tween-80.
[6] abbreviates: endpoint: mean survival time, dose: 100.0 mg/kg/injection, schedule: Q04DX003 (ip), vehicle: saline with Tween-80.
[7] abbreviates: endpoint: mean survival time, dose: 200.0 mg/kg/injection, schedule: Q04DX003 (ip), vehicle: saline with Tween-80.
Setting [8] is: endpoint: mean survival time, dose: 400.0 mg/kg/injection, schedule: Q04DX003 (ip), vehicle: saline with Tween-80.
[9] abbreviates: endpoint: mean survival time, dose: 400.0 mg/kg/injection, schedule: Q04DX002 (ip), vehicle: saline with Tween-80.

For the compound `CCC1(C)CCC2=C(CCC3C(C)(C(=O)O)CCCC23C)C1` (stereo not given), the T/C runs as follows: under setting [1], 96 % of control; under setting [2], 93 % of control; under setting [3], 91 % of control; under setting [4], 91 % of control; under setting [5], 96 % of control.

As to `N#Cc1ccc(C(=O)CC(O)(C(F)(F)F)C(F)(F)F)cc1`, the T/C runs as follows: under setting [6], 101 % of control; under setting [7], 101 % of control; under setting [8], 98 % of control.

For the compound `NC(=O)OCCc1ccccc1`, the T/C is, setting by setting: (endpoint: mean survival time, dose: 100.0 mg/kg/injection, schedule: Q04DX003 (ip), vehicle: Klucel (hydroxypropylcellulose) (HPC)) 94 % of control; (endpoint: mean survival time, dose: 200.0 mg/kg/injection, schedule: Q04DX003 (ip), vehicle: Klucel (hydroxypropylcellulose) (HPC)) 102 % of control.

Regarding `O=C(O)CS(=O)(=O)c1ccc(Cl)cc1`, the T/C was 111 % of control (endpoint: mean survival time, dose: 100.0 mg/kg/injection, schedule: Q01DX001 (ip), vehicle: Klucel (hydroxypropylcellulose) (HPC)); 103 % of control (endpoint: mean survival time, dose: 200.0 mg/kg/injection, schedule: Q01DX001 (ip), vehicle: Klucel (hydroxypropylcellulose) (HPC)); 100 % of control (endpoint: mean survival time, dose: 400.0 mg/kg/injection, schedule: Q01DX001 (ip), vehicle: Klucel (hydroxypropylcellulose) (HPC)).

Turning to `CCCC(=O)OCc1ccc(Cl)cc1Cl`, the T/C is 96 % of control under setting [2]; 91 % of control under setting [6]; 98 % of control under setting [4]; 89 % of control under setting [7]; 98 % of control (endpoint: mean survival time, dose: 400.0 mg/kg/injection, schedule: Q01DX009 (ip), vehicle: saline with Tween-80); 96 % of control under setting [8].

`O=C(O)C1CCC(C(=O)O)CC1.[NH-]C1CCCCC1[NH-].[Pt+2]` (stereo not given): the T/C runs as follows: (endpoint: median survival time, dose: 3.12 mg/kg/injection, schedule: Q04DX003 (ip), vehicle: saline) 123 % of control and 112 % of control; (endpoint: median survival time, dose: 6.25 mg/kg/injection, schedule: Q04DX003 (ip), vehicle: saline) 122 % of control; (endpoint: median survival time, dose: 25.0 mg/kg/injection, schedule: Q04DX003 (ip), vehicle: saline) 168 % of control; (endpoint: median survival time, dose: 50.0 mg/kg/injection, schedule: Q04DX003 (ip), vehicle: saline) 207 % of control and 237 % of control; (endpoint: median survival time, dose: 100.0 mg/kg/injection, schedule: Q04DX003 (ip), vehicle: saline) 287 % of control and 365 % of control; (endpoint: median survival time, dose: 200.0 mg/kg/injection, schedule: Q04DX003 (ip), vehicle: saline) 87 % of control and 89 % of control.

Turning to `COc1cccc2c1C(=O)c1c(O)c3c(c(O)c1C2=O)C[C@@](O)(C(=O)CO)C[C@@H]3OC1CC(N)C(OC)C(C)O1` (stereo not given in full), the T/C reads like this: (endpoint: mean survival time, dose: 0.54 mg/kg/injection, schedule: Q01DX009 (ip), vehicle: saline) 159 % of control; (endpoint: mean survival time, dose: 0.65 mg/kg/injection, schedule: Q01DX009 (ip), vehicle: saline) 207 % of control; (endpoint: mean survival time, dose: 0.9 mg/kg/injection, schedule: Q01DX009 (ip), vehicle: saline) 229 % of control; (endpoint: mean survival time, dose: 1.08 mg/kg/injection, schedule: Q01DX009 (ip), vehicle: saline) 319 % of control; (endpoint: mean survival time, dose: 1.3 mg/kg/injection, schedule: Q01DX001 (ip), vehicle: saline) 161 % of control; (endpoint: mean survival time, dose: 1.8 mg/kg/injection, schedule: Q01DX009 (ip), vehicle: saline) 250 % of control. Also, the T/C (endpoint: mean survival time, dose: 2.16 mg/kg/injection, schedule: Q01DX001 (ip), vehicle: saline) was 161 % of control; the T/C (endpoint: mean survival time, dose: 3.0 mg/kg/injection, schedule: Q01DX009 (ip), vehicle: saline) is 93 % of control; the T/C (endpoint: mean survival time, dose: 3.6 mg/kg/injection, schedule: Q01DX001 (ip), vehicle: saline) was 168 % of control and 170 % of control; the T/C (endpoint: mean survival time, dose: 6.0 mg/kg/injection, schedule: Q01DX001 (ip), vehicle: saline) is 189 % of control and 353 % of control; the T/C (endpoint: mean survival time, dose: 10.0 mg/kg/injection, schedule: Q01DX001 (ip), vehicle: saline) was 187 % of control and 260 % of control.

Regarding `c1ccc(N=NC2(c3ccccc3)CC(c3ccccc3)=NN(c3ccccc3)C2NNc2ccccc2)cc1` (stereo not given), the T/C is, setting by setting: under setting [1], 96 % of control; under setting [3], 102 % of control; under setting [5], 96 % of control.

Regarding `Cc1ccc(NCC2(/N=C/c3ccccc3)OC(CO)C(O)C2O)cc1` (stereo not given), the T/C runs as follows: (endpoint: mean survival time, dose: 100.0 mg/kg/injection, schedule: Q01DX009 (ip), vehicle: Klucel (hydroxypropylcellulose) (HPC)) 109 % of control; (endpoint: mean survival time, dose: 177.0 mg/kg/injection, schedule: Q01DX009 (ip), vehicle: saline with Tween-80) 113 % of control; (endpoint: mean survival time, dose: 200.0 mg/kg/injection, schedule: Q01DX009 (ip), vehicle: Klucel (hydroxypropylcellulose) (HPC)) 118 % of control; (endpoint: mean survival time, dose: 266.0 mg/kg/injection, schedule: Q01DX009 (ip), vehicle: Klucel (hydroxypropylcellulose) (HPC)) 120 % of control.

Turning to `CCOC(=O)c1ccc(NC(=O)Nc2cc(Cl)c(Cl)cc2C)cc1`, the T/C is 93 % of control (endpoint: mean survival time, dose: 3.13 mg/kg/injection, schedule: Q01DX001 (ip), vehicle: saline with Tween-80); 90 % of control (endpoint: mean survival time, dose: 3.13 mg/kg/injection, schedule: Q04DX003 (ip), vehicle: saline with Tween-80); 92 % of control (endpoint: mean survival time, dose: 6.25 mg/kg/injection, schedule: Q01DX001 (ip), vehicle: saline with Tween-80); 86 % of control and 89 % of control (endpoint: mean survival time, dose: 6.25 mg/kg/injection, schedule: Q01DX009 (ip), vehicle: saline with Tween-80); 91 % of control and 97 % of control (endpoint: mean survival time, dose: 6.25 mg/kg/injection, schedule: Q04DX002 (ip), vehicle: saline with Tween-80); 89 % of control (endpoint: mean survival time, dose: 6.25 mg/kg/injection, schedule: Q04DX003 (ip), vehicle: saline with Tween-80). Also, the T/C runs as follows: (endpoint: mean survival time, dose: 12.5 mg/kg/injection, schedule: Q01DX001 (ip), vehicle: saline with Tween-80) 93 % of control; (endpoint: mean survival time, dose: 12.5 mg/kg/injection, schedule: Q01DX009 (ip), vehicle: saline with Tween-80) 86 % of control; (endpoint: mean survival time, dose: 12.5 mg/kg/injection, schedule: Q04DX002 (ip), vehicle: saline with Tween-80) 91 % of control; (endpoint: mean survival time, dose: 25.0 mg/kg/injection, schedule: Q04DX003 (ip), vehicle: saline with Tween-80) 90 % of control; (endpoint: mean survival time, dose: 50.0 mg/kg/injection, schedule: Q04DX002 (ip), vehicle: saline with Tween-80) 91 % of control; under setting [2], 88 % of control. For the same compound, the T/C under setting [9] is 88 % of control.

Consider `CCCc1cc(CCC)n2nc(N)nc2n1`, for which the T/C by setting is: under setting [6], 96 % of control; under setting [7], 94 % of control; under setting [8], 94 % of control.

For `CSc1nc(N)c2c(C(N)=O)cc(=O)n(C3OC(CO)C(O)C3O)c2n1` (stereo not given), the T/C (endpoint: mean survival time, dose: 12.5 mg/kg/injection, schedule: Q01DX005 (ip), vehicle: water) was 96 % of control; the T/C (endpoint: mean survival time, dose: 25.0 mg/kg/injection, schedule: Q01DX005 (ip), vehicle: water) was 96 % of control; the T/C (endpoint: mean survival time, dose: 50.0 mg/kg/injection, schedule: Q01DX005 (ip), vehicle: water) was 96 % of control; the T/C (endpoint: mean survival time, dose: 100.0 mg/kg/injection, schedule: Q01DX005 (ip), vehicle: water) is 93 % of control; the T/C (endpoint: mean survival time, dose: 200.0 mg/kg/injection, schedule: Q01DX005 (ip), vehicle: water) was 101 % of control.

For the compound `C[S+](C)(=O)/C=C(\[O-])Nc1ccc(Cl)c(Cl)c1`, the T/C under setting [6] is 103 % of control, the T/C under setting [7] was 90 % of control and the T/C under setting [8] was 91 % of control.

For `O=C(COc1ccc(Cl)cc1Cl)Nc1ccccc1`, the T/C (endpoint: mean survival time, dose: 100.0 mg/kg/injection, schedule: Q04DX002 (ip), vehicle: saline with Tween-80) was 91 % of control; the T/C (endpoint: mean survival time, dose: 200.0 mg/kg/injection, schedule: Q04DX002 (ip), vehicle: saline with Tween-80) is 95 % of control; the T/C under setting [9] is 98 % of control.

As for `CC(C)=CCC/C(C)=C/CNCCc1c[nH]c2ccccc12`, the T/C reads like this: (endpoint: mean survival time, dose: 5.0 mg/kg/injection, schedule: Q01DX009 (ip), vehicle: saline with Tween-80) 102 % of control; (endpoint: mean survival time, dose: 10.0 mg/kg/injection, schedule: Q01DX009 (ip), vehicle: saline with Tween-80) 98 % of control; (endpoint: mean survival time, dose: 20.0 mg/kg/injection, schedule: Q01DX009 (ip), vehicle: saline with Tween-80) 100 % of control.

Regarding `C/C(CC(=O)Nc1ccccn1)=N\c1ccccn1`, the T/C by setting is: under setting [6], 96 % of control; under setting [7], 94 % of control.
